Experimental data taken from patent US10472612B2, “Cell culture system” (PRESIDENT AND FELLOWS OF HARVARD COLLEGE, priority 2011, dated 2019).

What was measured:
Caco-2 cell monolayer [1] = assay: LGG co-culture on Caco-2 monolayer in static Transwell; type: cell-based, human; conditions: first day of co-culture, not measurable after 48 hours
Experimental: Epithelial Barrier Measurements. The integrity of the human intestinal epithelial cell monolayer resulting from establishment of apical tight junctions was evaluated by staining for the tight junctional protein, occluidin,^29 using confocal immunofluorescence microscopy and by measuring trans-epithelial electrical resistance (TEER). In Transwell cultures, TEER was measured using a Millicell ERS meter (Millipore, Bedford, Mass.) coupled to a chopstick-like electrode, and TEER values (Ω cm^2) were determined by subtracting the baseline resistance value measured in the absence of cells and then multiplying the remaining ‘specific’ resistance value (Ω) times the cell culture surface area (cm^2). The TEER of the Caco-2 monolayer cultured in the Gut-on-a-Chip was measured using a voltage-ohm meter (87V Industrial Multimeter, Fluke Corporation, Everett, Wash.) coupled to Ag/AgCl electrode wires (0.008″ in diameter; A-M systems, Inc., Sequim, Wash.); control studies confirmed that similar TEER results were obtained with both methods. Again, the baseline resistance value measured in the absence of cells was subtracted from results obtained with the Caco-2 monolayer, and specific TEER values were determined by multiplying the specific resistance times the total cell culture surface area on the PDMS membrane (Table 1).
Microbial Studies. […]

Caco-2 cell monolayer [2] = type: cell-based; conditions: flow 40 μL/hr, cyclic strain 10%, 0.15 Hz
Experimental: Epithelial Barrier Measurements. The integrity of the human intestinal epithelial cell monolayer resulting from establishment of apical tight junctions was evaluated by staining for the tight junctional protein, occluidin,^29 using confocal immunofluorescence microscopy and by measuring trans-epithelial electrical resistance (TEER). In Transwell cultures, TEER was measured using a Millicell ERS meter (Millipore, Bedford, Mass.) coupled to a chopstick-like electrode, and TEER values (Ω cm^2) were determined by subtracting the baseline resistance value measured in the absence of cells and then multiplying the remaining ‘specific’ resistance value (Ω) times the cell culture surface area (cm^2). […] Again, the baseline resistance value measured in the absence of cells was subtracted from results obtained with the Caco-2 monolayer, and specific TEER values were determined by multiplying the specific resistance times the total cell culture surface area on the PDMS membrane (Table 1).

[3] = tested on: Caco-2 cell monolayer alone or with HMVE cell monolayer; assay: Molecular permeability through cell monolayer in gut-on-a-chip with or without mechanical strain (Example 1); type: in vitro ADME, human; conditions: Caco-2 monolayer alone or with HMVE monolayer; cyclic stretching 0.15 Hz, 30 μL/h
Experimental: In a fluidic condition (N=4), constant perfusion flow of 30 μL/h was conducted without any stretching motions (i.e. shear stresses only). […] In a static condition (N=4), transport experiment was performed in a Transwell system. Error bars indicate standard errors.
In a fluidic condition (N=2), constant perfusion flow at 30 μL/h was conducted without any stretching motions (i.e. shear stresses only). […] In a static condition (N=4), transport experiments were performed in the Transwell system. Error bars indicate standard errors.
In a fluidic condition (N=5), constant perfusion flow of 30 μL/h was conducted without any stretching motions (i.e. shear stresses only). […] In a static condition (N=3), transport experiment was performed in a Transwell system. Error bars indicate standard errors.
After the cell monolayers were fully confluent and stabilized under defined fluidic conditions, transport experiments were conducted. […] The co-cultured monolayers of Caco-2 and HMVE cells experienced with cyclic deformations for 12 hours or more prior to initiating the transport or barrier functional analysis experiments. […] Electrical resistances between the top and the bottom microchannels were monitored using an Ag/AgCl electrode equipped with an Ohm meter, and the resistance was converted into TEER value by multiplying values by the surface area of the cell monolayer. […]

Substance | TEER during co-culture (Caco-2 cell monolayer [1]) | barrier integrity (TEER) during co-culture (Caco-2 cell monolayer [2]) | effect of mechanical strain on paracellular transport [3]
Lactobacillus rhamnosus GG [LGG] | dissipated | improved | 
Lucifer yellow |  |  | increased
